Measurements: US9790158B2, “Substituted tropolone derivatives and methods of use” (University of Connecticut, priority 2012, dated 2017)

Key:
[1] = molecular target: human recombinant HDAC4 (Homo sapiens, UniProt P56524); assay: fluorogenic HDAC inhibition assay, HDAC4; assay type: biochemical; settings: IC50 converted to Ki with KM (Cheng and Prusoff); read-out: Ki HDAC-4
[2] = system: HuT-78 cells; assay: cell-based cytotoxicity assay (Cell Titer 96 Aqueous One), HuT-78; settings: 72-h exposure, absorbance at 490 nm
Description: (§1) All cell lines were purchased from ATCC (Manassas, Va.). Jurkat cells were cultured in RPMI 1640 (ATCC) supplemented with 10% fetal bovine serum (FBS; Atlanta Biologicals, Lawrenceville, Ga.). HuT-78 cells were cultured in IMDM (ATCC) supplemented with 20% FBS (Atlanta Biologicals). HT-29 and HCT116 were cultured in McCoy's media (Life Technologies, Carlsbad Calif.) supplemented with 10% FBS (Atlanta Biologicals), 1% non-essential amino acids (Mediatech Inc., Manassas, Va.) and 1% penicillin/streptomycin (Mediatech Inc).
(§2) Confluent Jurkat and HuT-78 cells were seeded in triplicate at a density of 5×10^4 cells/well whereas HT-29 and HCT116 cells were seeded in triplicate at a density of 5×10^3 cells/well in 96-well plates. Cells were treated at varying concentrations (1 μM-100 μM) of either a tropolone analog or SAHA. DMSO served as a vehicle control. After a 72-h exposure, cytotoxicity was evaluated using the Cell Titer 96 Aqueous One kit (Promega, Madison, Wis.) according to the instructions of the manufacturer. Formazan content was determined by measuring the absorbance at 490 nm on an Infinite M200 microplate reader (Tecan Group Ltd., Switzerland) and analyzed via non-linear regression analysis (GraphPad Software, Inc.).

[3] = molecular target: human recombinant HDAC8 (Homo sapiens (Human), UniProt Q9BY41); assay: fluorogenic HDAC inhibition assay, HDAC8; assay type: biochemical; settings: IC50 converted to Ki with KM (Cheng and Prusoff); read-out: Ki HDAC-8
Description: Key enzyme kinetic parameters for one class I HDAC (HDAC8) and one class Ha HDAC (HDAC4) were determined using commercially available human recombinant HDAC enzymes (BPS Bioscience, San Diego, Calif.) and fluorogenic HDAC assay kits (BPS Bioscience). Kinetic parameters were determined by performing HDAC activity assays at varied concentrations of the HDAC substrate according to the manufacturer's protocol. Assay data were analyzed via non-linear regression (GraphPad Software, Inc., CA). Inhibition assays were used to determine the half maximal inhibitory concentration, IC50, for tropolone analogs in HDAC8 and […]. The potent hydroxamic acid HDAC inhibitor, Trichostatin A (TSA), provided in the assay kit, served as a control for the assays. IC50 values for the tropolone analogs were converted to inhibition constants, Ki, for each of the inhibitors using the KM value in accordance with the techniques previously described by Cheng and Prusoff.

[4] = system: Jurkat cells; assay: cell-based cytotoxicity assay (Cell Titer 96 Aqueous One), Jurkat; settings: 72-h exposure, absorbance at 490 nm
Description: as §1, §2

human recombinant HDAC4, sequence (P56524 whole entry, looked up): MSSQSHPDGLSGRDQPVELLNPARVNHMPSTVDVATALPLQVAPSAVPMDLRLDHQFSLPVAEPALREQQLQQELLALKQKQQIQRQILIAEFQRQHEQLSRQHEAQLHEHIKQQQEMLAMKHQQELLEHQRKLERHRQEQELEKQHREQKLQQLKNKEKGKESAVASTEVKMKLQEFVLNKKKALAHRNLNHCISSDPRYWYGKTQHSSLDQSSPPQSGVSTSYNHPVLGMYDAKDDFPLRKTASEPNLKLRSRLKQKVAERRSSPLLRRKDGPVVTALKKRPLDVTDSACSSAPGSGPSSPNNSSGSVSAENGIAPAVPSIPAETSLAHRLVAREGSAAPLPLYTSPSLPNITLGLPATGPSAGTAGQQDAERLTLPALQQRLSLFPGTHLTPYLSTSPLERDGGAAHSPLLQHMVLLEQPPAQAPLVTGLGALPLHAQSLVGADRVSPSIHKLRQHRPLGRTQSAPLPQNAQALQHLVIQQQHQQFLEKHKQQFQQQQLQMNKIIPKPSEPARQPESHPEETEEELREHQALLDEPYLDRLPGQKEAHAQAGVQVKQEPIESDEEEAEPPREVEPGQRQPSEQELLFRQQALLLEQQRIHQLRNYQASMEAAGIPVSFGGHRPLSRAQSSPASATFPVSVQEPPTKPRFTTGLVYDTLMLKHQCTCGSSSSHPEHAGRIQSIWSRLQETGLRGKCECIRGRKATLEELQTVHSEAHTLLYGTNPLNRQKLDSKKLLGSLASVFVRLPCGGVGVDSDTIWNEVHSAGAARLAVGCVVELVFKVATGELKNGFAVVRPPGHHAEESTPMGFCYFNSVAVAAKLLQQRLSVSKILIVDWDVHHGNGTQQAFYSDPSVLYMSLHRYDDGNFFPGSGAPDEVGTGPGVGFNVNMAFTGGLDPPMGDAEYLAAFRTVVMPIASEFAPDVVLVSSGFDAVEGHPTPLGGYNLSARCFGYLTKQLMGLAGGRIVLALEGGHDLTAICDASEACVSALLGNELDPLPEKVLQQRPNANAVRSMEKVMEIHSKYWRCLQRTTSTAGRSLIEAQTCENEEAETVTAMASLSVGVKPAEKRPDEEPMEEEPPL
human recombinant HDAC8, sequence (Q9BY41 whole entry): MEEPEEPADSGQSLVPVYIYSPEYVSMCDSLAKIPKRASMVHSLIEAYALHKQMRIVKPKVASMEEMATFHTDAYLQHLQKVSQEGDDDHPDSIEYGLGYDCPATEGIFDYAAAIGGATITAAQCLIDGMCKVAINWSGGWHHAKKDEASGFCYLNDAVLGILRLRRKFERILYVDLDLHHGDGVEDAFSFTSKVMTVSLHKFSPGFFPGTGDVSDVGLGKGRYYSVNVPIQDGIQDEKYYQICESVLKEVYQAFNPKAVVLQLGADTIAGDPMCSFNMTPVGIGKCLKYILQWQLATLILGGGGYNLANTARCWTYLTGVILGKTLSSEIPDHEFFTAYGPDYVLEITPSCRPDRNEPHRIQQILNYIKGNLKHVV

`COc1ccc(OC)c(-c2ccccc(O)c2=O)c1` [Example 4] gave a Ki [1] of 184 nM, an IC50 ([2]; Homo sapiens, HuT78) of 3050 nM and a Ki [3] of 0.44 nM. It also gave an IC50 ([4]; Homo sapiens, Jurkat) of 750 nM.

With `O=c1c(O)ccccc1-c1ccccc1` [Example 1] the Ki [1] was 0.08 nM, the IC50 ([2]; Homo sapiens, HuT78) was 7830 nM and the Ki [3] was 0.17 nM. It also gave an IC50 ([4]; Homo sapiens, Jurkat) of 3330 nM.

Molecule `CCC(C)c1cccc(O)c(=O)c1` (stereo not shown) [Example 11] has a Ki [1] of 94.5 nM, an IC50 [2] of 3250 nM and a Ki [3] of 10.1 nM. For the same molecule, the IC50 [4] was 590 nM.

For `COc1ccc(OC)c(-c2cccc(O)c(=O)c2)c1` [Example 8], the Ki [1] was 541 nM, the IC50 [2] was 17100 nM and the Ki [3] was 1.42 nM. For the same molecule, the IC50 [4] was 5880 nM.

For `O=c1cc(C2CCCC2)cccc1O` [Example 12], the Ki [1] was 6.64 nM, the IC50 [2] was 11400 nM and the Ki [3] was 23.3 nM. It also gave an IC50 [4] of 6300 nM.

With `COc1ccc(-c2ccccc(O)c2=O)cc1` [Example 3] the Ki [1] was 2.74 nM, the IC50 ([2]; Homo sapiens, HuT78) was 2870 nM and the Ki [3] was 0.14 nM. It also gave an IC50 ([4]; Homo sapiens, Jurkat) of 620 nM.

`O=c1cccc(-c2ccccc2)cc1O` [Example 6] was tested, and the Ki [1] was 72.8 nM, the IC50 [2] was 4140 nM and the Ki [3] was 19.4 nM. The IC50 [4] was 670 nM.

For `CC(C)c1cccc(O)c(=O)c1` [Example 9], the Ki [1] was 3.32 nM, the IC50 [2] was 4990 nM and the Ki [3] was 105 nM. It also gave an IC50 [4] of 1100 nM.

Work on `COc1ccc(-c2ccccc(O)c2=O)c(OC)c1OC` [Example 5] yielded a Ki [1] of 59 nM, an IC50 ([2]; Homo sapiens, HuT78) of 4740 nM and a Ki [3] of 0.04 nM. For the same molecule, the IC50 ([4]; Homo sapiens, Jurkat) was 1860 nM.

Molecule `O=c1c(O)ccccc1-c1ccc2ccccc2c1` [Example 2] has a Ki [1] of 0.54 nM and a Ki [3] of 7.63 nM.

For `CC(C)(C)c1cccc(O)c(=O)c1` [Example 10], the Ki [1] was 489 nM, the IC50 [2] was 13100 nM and the Ki [3] was 2.69 nM. For the same molecule, the IC50 [4] was 4450 nM.

For `COc1cccc(-c2cccc(O)c(=O)c2)c1` [Example 7], the Ki [1] was 1.7 nM, the IC50 [2] was 8950 nM and the Ki [3] was 1.36 nM. It also gave an IC50 [4] of 4620 nM.
